Assay results reported in ChEMBL document CHEMBL4392871, “Baraphenazines A-G, Divergent Fused Phenazine-Based Metabolites from a Himalayan Streptomyces” (J Nat Prod, 2019).
Values after ≈ are worked out from the molar mass of the structure shown.

Key:
A549 = assay: Cytotoxicity in human A549 cells assessed as reduction in cell viability incubated for 48 hrs; format: functional, cell-based; conditions: A549, 48 h
Ambystoma mexicanum = assay: Toxicity in axolotl at <=10 uM by embryo tail regeneration assay; format: organism-based; conditions: in vivo
Bacillus subtilis = assay: Antimicrobial activity against Bacillus subtilis ATCC 6633 incubated for 16 to 48 hrs; format: functional
Escherichia coli = assay: Antimicrobial activity against Escherichia coli NRRL B-3708 incubated for 16 to 48 hrs; format: functional
Staphylococcus aureus = assay: Antimicrobial activity against Staphylococcus aureus ATCC 6538 incubated for 16 to 48 hrs; format: functional
Mycolicibacterium aurum = assay: Antimicrobial activity against Mycobacterium aurum ATCC 23366 incubated for 16 to 48 hrs; format: functional
Salmonella enterica = assay: Antimicrobial activity against Salmonella enterica ATCC 10708 incubated for 16 to 48 hrs; format: functional
Micrococcus luteus = assay: Antimicrobial activity against Micrococcus luteus NRRL B-287 incubated for 16 to 48 hrs; format: functional
PC-3 = assay: Cytotoxicity in human PC3 cells assessed as reduction in cell viability incubated for 48 hrs; format: functional, cell-based; conditions: PC-3, 48 h
Saccharomyces cerevisiae = assay: Antimicrobial activity against Saccharomyces cerevisiae ATCC 204508 incubated for 16 to 48 hrs; format: functional

SMILES | MIC (Bacillus subtilis) [µM] | MIC (Escherichia coli) [µM] | MIC (Staphylococcus aureus) [µM] | MIC (Mycolicibacterium aurum) [µM] | MIC (Salmonella enterica) [µM] | MIC (Micrococcus luteus) [µM] | MIC (Saccharomyces cerevisiae) [µM] | IC50 (A549) [µM] | Activity (Ambystoma mexicanum) | IC50 (PC-3) [µM]
O=C(O)C1(O)O[C@@H]2[C@@H](Cc3nc4c(O)cccc4nc3[C@H]2O)[C@H]1c1c[nH]c2ccccc12 (stereo not given in full) | > 120 | > 120 | > 120 | > 120 | > 120 | > 120 | > 120 | > 50 | Non-Toxic | > 50
O=C(O)C1(O)O[C@@H]2[C@@H](Cc3nc4c(O)cccc4nc3[C@@H]2O)[C@H]1c1ccc(O)cc1 (stereo not given in full) | > 120 | > 120 | > 120 | > 120 | > 120 | > 120 | > 120 | > 50 | Non-Toxic | > 50
NC(=O)c1cccc2nc3c4c(ccc3nc12)[C@H]1c2nc3c(O)cccc3nc2C[C@@H]4[C@@H]1O | 7.5 (≈ 3.27 µg/mL) | > 120 | 4 (≈ 1.74 µg/mL) | 30 (≈ 13.1 µg/mL) | > 120 | 7.5 (≈ 3.27 µg/mL) | > 120 | 2.4 | Non-Toxic | 4.7
O=C(O)C1(O)O[C@@H]2[C@@H](Cc3nc4c(O)cccc4nc3[C@@H]2O)[C@H]1c1c[nH]c2ccccc12 (stereo not given in full) | > 120 | > 120 | > 120 | > 120 | > 120 | > 120 | > 120 | > 50 | Non-Toxic | > 50

Further lines, with some results ahead:

MIC (Bacillus subtilis) [µM] | MIC (Escherichia coli) [µM] | MIC (Staphylococcus aureus) [µM] | MIC (Mycolicibacterium aurum) [µM] | MIC (Salmonella enterica) [µM] | MIC (Micrococcus luteus) [µM] | MIC (Saccharomyces cerevisiae) [µM] | SMILES | IC50 (A549) [µM] | Activity (Ambystoma mexicanum) | IC50 (PC-3) [µM]
> 120 | > 120 | > 120 | > 120 | > 120 | > 120 | > 120 | O=C(O)c1ccc(O)c2nc3c4c(ccc3nc12)[C@@H]1Cc2nc3cccc(O)c3nc2[C@H](O4)[C@H]1O | > 50 | Non-Toxic | > 50
> 120 | > 120 | > 120 | > 120 | > 120 | > 120 | > 120 | O=C(O)c1cc2c(c3nc4cccc(O)c4nc13)[C@@H]1Cc3nc4cccc(O)c4nc3[C@@](O)(C1)O2 | > 50 | Non-Toxic | > 50
> 120 | > 120 | > 120 | > 120 | > 120 | > 120 | > 120 | O=C(O)c1cccc2nc3c4c(ccc3nc12)[C@H]1c2nc3c(O)cccc3nc2C[C@@H]4[C@H]1O | > 50 | Non-Toxic | > 50
